{"source": "patent US20090137492A1", "about": "(priority 2006, published 2009)", "key": {"[1]": {"tested_on": "B. anthracis Sterne spores", "design": "species or system Mice of the A/J strain", "settings": "mouse, in vivo"}, "[2]": {"tested_on": "IL-10", "format": "cell-based"}, "[3]": {"tested_on": "anthrax spores", "design": "species or system murine (A/J mice)", "settings": "mouse, in vivo"}, "[4]": {"settings": "mouse, in vivo"}, "[5]": {"tested_on": "IL-1beta, IL-6, IL-10, TNF-alpha, Toll-Like Receptors (TLRs), NODs, SOCS", "format": "cell-based"}, "[6]": {"tested_on": "H3N2/Wuhan influenza virus", "design": "species or system cotton rat", "settings": "rat, in vivo"}, "[7]": {"tested_on": "IL-1beta", "format": "cell-based"}, "[8]": {"tested_on": "IL-6", "design": "species or system cotton rat", "settings": "rat, in vivo"}}, "note": "Several values for one entry are separate records, joined by “and”; a condition that tells them apart may be missing. Equal values may be shown once. Entries after “also recorded” stand apart in the source; their conditions may differ."}
{"substance": "Sar^9, Met(O2)^11-Substance P [Viprovex]", "values": [{"measurement": "inhibition of lethality", "setting": "[1]", "result": "dose dependent inhibition of lethality"}, {"measurement": "treated animals that died", "setting": "[1]", "result": "2 of the 6"}, {"measurement": "IL-10 mRNA increase relative to IL-6 increase", "setting": "[2]", "result": 21, "unit": "×"}, {"measurement": "increase in survival rates", "setting": "[3]", "result": 240, "unit": "%"}, {"measurement": "protection against anthrax-induced death", "setting": "[3]", "result": "partially protect against anthrax-induced death"}, {"measurement": "protection from death, time course", "setting": "[3]", "result": "clearly protected from death as early as 5 days post-exposure; also recorded: maintained survival from approximately day 10 onward"}, {"measurement": "survival rate", "setting": "[3]", "result": "68.8% and 62.5%"}, {"measurement": "survival, of the animals that would otherwise have died", "setting": "[3]", "result": "20-70%"}, {"measurement": "toxicity", "setting": "[4]", "result": "no toxicity was observed"}, {"measurement": "elevation of components of the host immune system", "setting": "[5]", "result": "elevation of cytokines, interleukins, TLR, defensins and other components of immune surveillance; also recorded: elevate multiple components of the host immune system"}, {"measurement": "efficacy against influenza virus infection", "setting": "[6]", "result": "provides therapeutic efficacy in animal models of infection by influenza virus; also recorded: more resistant to the effects of H3N2/Wuhan influenza virus"}, {"measurement": "IL-1 mRNA increase relative to IL-6 increase", "setting": "[7]", "result": 28, "unit": "×"}, {"measurement": "IL-6 levels in the lungs", "setting": "[8]", "result": "do not significantly increase"}, {"measurement": "Il-6, single animals", "setting": "[8]", "result": "1.623 and 1.253 and 2.458 and 2.167 and 3.013 and 0 and 2.416 and 7.483 and 1.791"}]}
